From ChEMBL document CHEMBL5291721, “A preclinical secondary pharmacology resource illuminates target-adverse drug reaction associations of marketed drugs” (Nat Commun, 2023)

Columns and labels:
[1] = molecular target: T1, Alpha-2C adrenergic receptor (Homo sapiens, UniProt P18825); type: functional
T1 sequence (P18825 whole entry): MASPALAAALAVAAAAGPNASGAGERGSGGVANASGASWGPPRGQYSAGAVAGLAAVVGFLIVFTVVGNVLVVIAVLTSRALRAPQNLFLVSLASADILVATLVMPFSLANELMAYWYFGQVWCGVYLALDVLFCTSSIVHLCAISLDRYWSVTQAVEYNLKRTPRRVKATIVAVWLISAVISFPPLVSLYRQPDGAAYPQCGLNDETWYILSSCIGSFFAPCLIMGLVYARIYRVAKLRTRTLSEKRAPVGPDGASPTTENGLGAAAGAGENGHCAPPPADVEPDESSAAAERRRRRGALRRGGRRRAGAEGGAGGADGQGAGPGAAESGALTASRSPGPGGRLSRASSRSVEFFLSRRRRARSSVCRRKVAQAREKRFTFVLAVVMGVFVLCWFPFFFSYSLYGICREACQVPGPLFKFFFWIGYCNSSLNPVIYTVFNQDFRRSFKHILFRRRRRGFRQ

[2] = molecular target: T2, 5-hydroxytryptamine receptor 1A (Homo sapiens, UniProt P08908); type: functional, cell-based
T2 sequence (P08908 whole entry): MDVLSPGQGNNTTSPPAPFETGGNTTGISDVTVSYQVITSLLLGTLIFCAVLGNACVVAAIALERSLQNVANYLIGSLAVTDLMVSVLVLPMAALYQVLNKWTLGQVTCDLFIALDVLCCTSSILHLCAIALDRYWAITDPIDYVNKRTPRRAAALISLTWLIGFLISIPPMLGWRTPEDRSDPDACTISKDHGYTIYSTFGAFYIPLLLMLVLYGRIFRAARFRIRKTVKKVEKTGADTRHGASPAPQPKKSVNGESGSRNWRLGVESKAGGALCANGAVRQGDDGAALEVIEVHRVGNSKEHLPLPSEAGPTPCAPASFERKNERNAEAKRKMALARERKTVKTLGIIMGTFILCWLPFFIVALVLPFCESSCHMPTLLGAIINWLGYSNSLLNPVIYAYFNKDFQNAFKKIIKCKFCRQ

[3] = molecular target: T3, 5-hydroxytryptamine receptor 2B (Homo sapiens, UniProt P41595); type: functional, cell-based
T3 sequence (P41595 whole entry): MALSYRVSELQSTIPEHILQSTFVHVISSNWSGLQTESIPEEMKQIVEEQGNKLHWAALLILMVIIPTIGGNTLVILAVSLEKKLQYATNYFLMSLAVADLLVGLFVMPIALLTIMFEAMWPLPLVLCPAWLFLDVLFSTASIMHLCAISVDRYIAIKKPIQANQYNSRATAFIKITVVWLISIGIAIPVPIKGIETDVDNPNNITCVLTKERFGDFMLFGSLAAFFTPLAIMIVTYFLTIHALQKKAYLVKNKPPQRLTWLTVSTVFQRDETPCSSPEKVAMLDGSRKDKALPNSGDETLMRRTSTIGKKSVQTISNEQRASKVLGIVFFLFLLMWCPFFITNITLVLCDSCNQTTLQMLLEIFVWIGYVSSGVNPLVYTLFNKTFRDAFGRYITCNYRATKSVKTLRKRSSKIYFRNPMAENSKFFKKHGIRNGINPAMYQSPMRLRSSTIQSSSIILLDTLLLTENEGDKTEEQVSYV

[4] = molecular target: T3, 5-hydroxytryptamine receptor 2B; type: functional, cell-based; remark: listed apart in the source
[5] = molecular target: T4, 5-hydroxytryptamine receptor 3A (Homo sapiens, UniProt P46098); type: functional
T4 sequence (P46098 whole entry): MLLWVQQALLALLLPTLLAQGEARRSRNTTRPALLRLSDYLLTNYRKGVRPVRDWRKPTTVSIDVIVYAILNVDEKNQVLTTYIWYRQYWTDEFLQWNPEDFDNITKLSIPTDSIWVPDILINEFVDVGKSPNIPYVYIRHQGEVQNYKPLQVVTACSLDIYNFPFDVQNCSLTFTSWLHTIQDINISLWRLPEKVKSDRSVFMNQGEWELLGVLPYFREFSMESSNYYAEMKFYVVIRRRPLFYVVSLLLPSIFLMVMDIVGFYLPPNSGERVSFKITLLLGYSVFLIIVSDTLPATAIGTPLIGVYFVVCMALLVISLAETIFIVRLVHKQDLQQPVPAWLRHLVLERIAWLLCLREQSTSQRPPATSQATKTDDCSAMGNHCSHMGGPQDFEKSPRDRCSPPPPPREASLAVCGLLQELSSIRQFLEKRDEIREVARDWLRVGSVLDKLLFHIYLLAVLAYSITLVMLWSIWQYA

[6] = molecular target: 3',5'-cyclic-AMP phosphodiesterase 4D (Homo sapiens, UniProt Q08499); type: functional
Chain of 3',5'-cyclic-AMP phosphodiesterase 4D (Q08499 whole entry): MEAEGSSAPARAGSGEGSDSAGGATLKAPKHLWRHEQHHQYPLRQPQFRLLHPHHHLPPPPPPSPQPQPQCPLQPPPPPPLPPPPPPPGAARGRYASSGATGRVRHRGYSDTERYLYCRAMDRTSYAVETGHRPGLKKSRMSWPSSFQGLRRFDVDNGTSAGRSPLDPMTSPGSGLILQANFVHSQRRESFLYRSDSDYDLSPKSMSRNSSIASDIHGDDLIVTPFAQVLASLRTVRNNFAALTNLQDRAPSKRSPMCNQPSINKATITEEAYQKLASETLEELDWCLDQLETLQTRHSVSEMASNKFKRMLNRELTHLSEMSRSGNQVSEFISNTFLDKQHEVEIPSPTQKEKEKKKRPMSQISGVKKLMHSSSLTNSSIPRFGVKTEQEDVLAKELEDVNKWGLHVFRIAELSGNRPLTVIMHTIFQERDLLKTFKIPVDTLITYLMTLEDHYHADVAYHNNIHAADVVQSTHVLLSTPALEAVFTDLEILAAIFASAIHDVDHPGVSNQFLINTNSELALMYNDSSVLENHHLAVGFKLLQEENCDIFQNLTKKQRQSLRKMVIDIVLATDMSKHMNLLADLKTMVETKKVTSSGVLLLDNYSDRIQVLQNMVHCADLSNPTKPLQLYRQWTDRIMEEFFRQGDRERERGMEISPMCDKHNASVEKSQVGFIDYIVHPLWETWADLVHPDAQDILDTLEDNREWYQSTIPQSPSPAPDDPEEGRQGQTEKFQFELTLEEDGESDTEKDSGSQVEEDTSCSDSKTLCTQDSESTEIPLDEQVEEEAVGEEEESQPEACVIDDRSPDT

[7] = molecular target: D(3) dopamine receptor (Homo sapiens, UniProt P35462)
Chain of D(3) dopamine receptor (P35462 whole entry): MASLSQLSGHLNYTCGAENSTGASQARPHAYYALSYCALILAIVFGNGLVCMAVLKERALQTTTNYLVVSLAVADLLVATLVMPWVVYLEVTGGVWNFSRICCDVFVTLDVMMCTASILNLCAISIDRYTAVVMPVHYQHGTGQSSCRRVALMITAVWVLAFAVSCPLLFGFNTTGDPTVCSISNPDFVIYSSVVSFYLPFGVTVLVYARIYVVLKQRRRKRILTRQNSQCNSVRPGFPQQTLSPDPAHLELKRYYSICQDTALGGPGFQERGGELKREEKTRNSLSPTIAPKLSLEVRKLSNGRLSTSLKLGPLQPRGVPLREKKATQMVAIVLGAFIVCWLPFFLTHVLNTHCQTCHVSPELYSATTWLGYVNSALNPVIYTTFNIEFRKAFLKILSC

[8] = molecular target: Adenosine receptor A2a (Homo sapiens, UniProt P29274)
Chain of Adenosine receptor A2a (P29274 whole entry): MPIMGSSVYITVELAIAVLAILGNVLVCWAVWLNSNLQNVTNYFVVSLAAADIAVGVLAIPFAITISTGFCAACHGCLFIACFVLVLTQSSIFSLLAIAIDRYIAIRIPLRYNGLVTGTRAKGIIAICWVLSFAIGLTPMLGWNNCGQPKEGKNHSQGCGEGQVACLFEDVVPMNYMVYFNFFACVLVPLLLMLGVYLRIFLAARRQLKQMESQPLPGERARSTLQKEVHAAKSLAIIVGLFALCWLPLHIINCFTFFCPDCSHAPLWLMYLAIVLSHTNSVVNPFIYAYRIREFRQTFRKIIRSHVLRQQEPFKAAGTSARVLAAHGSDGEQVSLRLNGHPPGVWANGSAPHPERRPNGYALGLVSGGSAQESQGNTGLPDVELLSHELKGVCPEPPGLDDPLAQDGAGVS

[9] = molecular target: T5, Type-1 angiotensin II receptor (Homo sapiens, UniProt P30556)
T5 sequence (P30556 whole entry): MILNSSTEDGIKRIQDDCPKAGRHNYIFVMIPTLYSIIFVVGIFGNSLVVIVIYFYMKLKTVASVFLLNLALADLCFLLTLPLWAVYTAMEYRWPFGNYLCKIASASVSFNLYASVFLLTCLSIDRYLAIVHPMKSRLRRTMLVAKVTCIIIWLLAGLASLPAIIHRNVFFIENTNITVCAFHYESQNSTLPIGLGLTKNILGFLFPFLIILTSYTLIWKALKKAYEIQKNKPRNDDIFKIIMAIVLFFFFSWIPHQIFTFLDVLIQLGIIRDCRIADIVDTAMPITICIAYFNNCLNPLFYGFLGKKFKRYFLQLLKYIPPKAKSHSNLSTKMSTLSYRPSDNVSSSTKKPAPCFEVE

[10] = molecular target: Motilin receptor (Homo sapiens, UniProt O43193)
Chain of Motilin receptor (O43193 whole entry): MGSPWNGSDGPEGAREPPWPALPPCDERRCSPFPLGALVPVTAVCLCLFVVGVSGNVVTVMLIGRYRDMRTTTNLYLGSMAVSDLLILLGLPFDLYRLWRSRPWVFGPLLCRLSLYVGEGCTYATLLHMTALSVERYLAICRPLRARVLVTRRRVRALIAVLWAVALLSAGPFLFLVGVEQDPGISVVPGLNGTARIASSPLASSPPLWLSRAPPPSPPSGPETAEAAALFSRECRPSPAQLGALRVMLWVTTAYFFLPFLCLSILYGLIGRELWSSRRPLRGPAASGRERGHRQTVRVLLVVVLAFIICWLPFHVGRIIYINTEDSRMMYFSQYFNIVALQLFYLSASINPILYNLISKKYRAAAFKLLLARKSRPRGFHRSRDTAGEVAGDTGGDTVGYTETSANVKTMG

[11] = molecular target: T6, Neuropeptide Y receptor type 1 (Homo sapiens, UniProt P25929)
T6 sequence (P25929 whole entry): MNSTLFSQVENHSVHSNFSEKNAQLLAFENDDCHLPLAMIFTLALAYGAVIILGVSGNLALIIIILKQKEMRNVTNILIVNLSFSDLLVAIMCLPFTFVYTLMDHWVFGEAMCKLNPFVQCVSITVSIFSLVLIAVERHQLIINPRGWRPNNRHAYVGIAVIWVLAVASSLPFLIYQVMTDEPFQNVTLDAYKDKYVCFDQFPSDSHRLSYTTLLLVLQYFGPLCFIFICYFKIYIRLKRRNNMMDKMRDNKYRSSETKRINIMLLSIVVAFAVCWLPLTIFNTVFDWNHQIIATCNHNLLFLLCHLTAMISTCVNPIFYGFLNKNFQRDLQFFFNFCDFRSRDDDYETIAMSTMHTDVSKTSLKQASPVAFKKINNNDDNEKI

[12] = molecular target: T7, Thromboxane A2 receptor (Homo sapiens, UniProt P21731)
T7 sequence (P21731 whole entry): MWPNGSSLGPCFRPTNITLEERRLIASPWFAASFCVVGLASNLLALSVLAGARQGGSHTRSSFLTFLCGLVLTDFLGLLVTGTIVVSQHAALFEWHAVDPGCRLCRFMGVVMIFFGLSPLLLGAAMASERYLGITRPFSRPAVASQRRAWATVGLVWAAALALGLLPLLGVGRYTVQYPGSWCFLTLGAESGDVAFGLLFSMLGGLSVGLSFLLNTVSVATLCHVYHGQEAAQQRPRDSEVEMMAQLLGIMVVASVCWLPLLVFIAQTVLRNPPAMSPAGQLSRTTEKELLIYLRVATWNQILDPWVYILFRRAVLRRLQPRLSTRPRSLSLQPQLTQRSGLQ
Also: assay procedure not described here.

Compound	AC50 [1] [µM]	AC50 [2] [µM]	AC50 [3] [µM]	AC50 [4] [µM]	AC50 [5] [µM]	AC50 [6] [µM]	AC50 [7] [µM]	AC50 [8] [µM]	AC50 [9] [µM]	AC50 [10] [µM]	AC50 [11] [µM]	AC50 [12] [µM]
CO/N=C(\C(=O)N[C@@H]1C(=O)N2C(C(=O)[O-])=C(C[n+]3cccc4c3CCC4)CS[C@H]12)c1csc(N)n1 [CEFPIROME]	> 30	> 30	> 30	> 30	> 30	> 30	> 30					
CC(C)=CCOc1ccc(/C=C/C(=O)c2ccc(OCC=C(C)C)cc2OCC(=O)O)cc1 [SOFALCONE]	> 30	> 30	> 30	> 30	> 30	> 30	> 30	> 30	7.5	> 30	> 30	13
C[C@]12CC[C@H](O)CC1=CC[C@@H]1[C@@H]2CC[C@]2(C)C(c3cccnc3)=CC[C@@H]12 [ABIRATERONE]	> 10	> 10	> 10	> 10	> 30	> 30	> 30	> 30	> 30	> 10	> 30	> 30
Oc1c(I)cc(Cl)c2cccnc12 [CLIOQUINOL]	> 30	> 30	> 30	> 30	> 30		> 30					
C[C@]1(COc2ccc(N3CCC(Oc4ccc(OC(F)(F)F)cc4)CC3)cc2)Cn2cc([N+](=O)[O-])nc2O1	> 10				> 10	> 30			> 30	> 10	> 30	> 30
CC[C@H]1OC(=O)[C@H](C)[C@@H](O[C@H]2C[C@@](C)(OC)[C@@H](O)[C@H](C)O2)[C@H](C)[C@@H](O[C@@H]2O[C@H](C)C[C@H](N(C)C)[C@H]2O)[C@](C)(OC)C[C@@H](C)C(=O)[C@H](C)[C@@H](O)[C@]1(C)O [CLARITHROMYCIN]	> 30	> 30	> 30	> 30		> 30		> 30	> 30	> 30	> 30	> 30
O=C(CCCN1CCC2(CC1)C(=O)NCN2c1ccccc1)c1ccc(F)cc1 [SPIPERONE]	0.369		5.21		> 30	> 30		> 30	> 30	> 30	> 30	> 30
O=C(Nc1nc(-c2cc(Cl)cs2)c(N2CCN(C3CCCCC3)CC2)s1)c1cnc(N2CCC(C(=O)O)CC2)c(Cl)c1 [AVATROMBOPAG]	> 10				> 10	> 10	> 10	> 10	> 10	> 10	> 10	> 10
CNCCCC1c2ccccc2C=Cc2ccccc21 [PROTRIPTYLINE]		> 10	> 10	3.8	> 30	> 30	0.85	> 10	> 10	> 10	> 10	> 10
CO[C@@]1(NC(=O)CSCC#N)C(=O)N2C(C(=O)O)=C(CSc3nnnn3C)CS[C@@H]21 [CEFMETAZOLE]	> 30	> 30	> 30	> 30	> 30	> 30	> 30					
C[C@H]1C[C@H]2[C@@H]3CCC4=CC(=O)C=C[C@]4(C)[C@@]3(Cl)[C@@H](O)C[C@]2(C)[C@@]1(O)C(=O)CO [BECLOMETHASONE]	> 10				> 30	> 30	> 10	> 30	> 30	> 10	> 30	> 30
CN(C)C(=O)Oc1cc(OC(=O)N(C)C)cc(C(O)CNC(C)(C)C)c1 (centres undefined) [BAMBUTEROL]								> 30	> 30	> 30	> 30	> 30
